Measured values taken from US20100298141A1, “SUBSTITUTED PYRIDINE N-OXIDE HERBICIDES” (E. I. DU PONT DE NEMOURS AND COMPANY, priority 2007, published 2010).

How the values were obtained:
yellow nutsedge = experiment: Test G preemergence test; type: in vivo, Cyperus esculentus; details: scale 0 to 100
windgrass = experiment: Test D preemergence test; type: in vivo, Apera spica-venti; details: scale 0 to 100
Excerpt: (§1) Seeds of plant species selected from annual bluegrass (Poa annua), blackgrass (Alopecurus myosuroides), downy bromegrass (Bromus tectorum), field violet (Viola arvensis), green foxtail (Setaria viridis), Italian ryegrass (Lolium multiflorum), littleseed canarygrass (Phalaris minor), spring wheat (Triticum aestivum), wild oat (Avena fatua), […]), winter barley (Hordeum vulgare), and winter wheat (Triticum aestivum) were planted and treated preemergence with test chemicals formulated in a non-phytotoxic solvent mixture which included a surfactant. […] A dash (-) response means no test result.

fall panicum = experiment: Test G preemergence test; type: in vivo, Panicum dichotomiflorum; details: scale 0 to 100
littleseed canarygrass = experiment: Test D preemergence test; type: in vivo, Phalaris minor; details: scale 0 to 100
Excerpt: as §1

eastern black nightshade = experiment: Test G preemergence test; type: in vivo, Solanum ptycanthum; details: scale 0 to 100
itchgrass = experiment: Test G preemergence test; type: in vivo, Rottboellia cochinchinensis; details: scale 0 to 100
sorghum = experiment: Test G preemergence test; type: in vivo, Sorghum vulgare; details: scale 0 to 100
winter barley = experiment: Test D preemergence test; type: in vivo, Hordeum vulgare
Excerpt: as §1

downy bromegrass = experiment: Test D preemergence test; type: in vivo, Bromus tectorum; details: scale 0 to 100
Excerpt: as §1

blackgrass = experiment: Test D preemergence test; type: in vivo, Alopecurus myosuroides; details: scale 0 to 100
Excerpt: as §1

millet foxtail = experiment: Test G preemergence test; type: in vivo, Setaria italica; details: scale 0 to 100
broadleaf signalgrass = experiment: Test G preemergence test; type: in vivo, Brachiaria platyphylla; details: scale 0 to 100
goosegrass = experiment: Test G preemergence test; type: in vivo, Eleusine indica; details: scale 0 to 100
winter wheat = experiment: Test D preemergence test; type: in vivo, Triticum aestivum; details: scale 0 to 100
Excerpt: as §1

spring wheat = experiment: Test D preemergence test; type: in vivo, Triticum aestivum; details: scale 0 to 100
Excerpt: as §1

tall waterhemp = experiment: Test G preemergence test; type: in vivo, Amaranthus tuberculatos; details: scale 0 to 100
green foxtail = experiment: Test D preemergence test; type: in vivo, Setaria viridis; details: scale 0 to 100
Excerpt: as §1

woolly cupgrass = experiment: Test G preemergence test; type: in vivo, Eriochloa villosa; details: scale 0 to 100
yellow foxtail = experiment: Test G preemergence test; type: in vivo, Pennisetum glaucum; details: scale 0 to 100
lambsquarters = experiment: Test G preemergence test; type: in vivo, Chenopodium album; details: scale 0 to 100
large crabgrass = experiment: Test G preemergence test; type: in vivo, Digitaria sanguinalis; details: scale 0 to 100
field violet = experiment: Test D preemergence test; type: in vivo, Viola arvensis; details: scale 0 to 100
Excerpt: as §1

In the case of `Cc1cc[n+]([O-])c(S(=O)(=O)C(C)c2c(C(F)(F)F)nn(C)c2Cl)c1` (racemic) [Compound 14], the “Plant response rating, Nutsedge, Yellow” value (yellow nutsedge; 31 g ai/ha) is reported as 0, the “Plant response rating, Nutsedge, Yellow” value (yellow nutsedge; 62 g ai/ha) is reported as 0 and the “Plant response rating, Nutsedge, Yellow” value (yellow nutsedge; 125 g ai/ha) is reported as 0. The “Plant response rating, Nutsedge, Yellow” value (yellow nutsedge; 250 g ai/ha) was 65, the “Plant response rating, Windgrass” value (windgrass; 31 g ai/ha) was 0 and the “Plant response rating, Windgrass” value (windgrass; 62 g ai/ha) was 75. For the same compound, the “Plant response rating, Windgrass” value (windgrass; 125 g ai/ha) was 100, the “Plant response rating, Windgrass” value (windgrass; 250 g ai/ha) was 100 and the “Plant response rating, Fall Panicum” value (fall panicum; 31 g ai/ha) was 15. The “Plant response rating, Fall Panicum” value (fall panicum; 62 g ai/ha) was 50, the “Plant response rating, Fall Panicum” value (fall panicum; 125 g ai/ha) was 70 and the “Plant response rating, Fall Panicum” value (fall panicum; 250 g ai/ha) was 100. For the same compound, the “Plant response rating, Canarygrass” value (littleseed canarygrass; 31 g ai/ha) was 0, the “Plant response rating, Canarygrass” value (littleseed canarygrass; 62 g ai/ha) was 0 and the “Plant response rating, Canarygrass” value (littleseed canarygrass; 125 g ai/ha) was 15. For the same compound, the “Plant response rating, Canarygrass” value (littleseed canarygrass; 250 g ai/ha) was 20, the “Plant response rating, Nightshade” value (eastern black nightshade; 31 g ai/ha) was 0 and the “Plant response rating, Nightshade” value (eastern black nightshade; 62 g ai/ha) was 0. For the same compound, the “Plant response rating, Nightshade” value (eastern black nightshade; 125 g ai/ha) was 0, the “Plant response rating, Nightshade” value (eastern black nightshade; 250 g ai/ha) was 55 and the “Plant response rating, Itchgrass” value (itchgrass; 31 g ai/ha) was 0. For the same compound, the “Plant response rating, Itchgrass” value (itchgrass; 62 g ai/ha) was 0, the “Plant response rating, Itchgrass” value (itchgrass; 125 g ai/ha) was 15 and the “Plant response rating, Itchgrass” value (itchgrass; 250 g ai/ha) was 20. The “Plant response rating, Sorghum” value (sorghum; 31 g ai/ha) was 0, the “Plant response rating, Sorghum” value (sorghum; 62 g ai/ha) was 0 and the “Plant response rating, Sorghum” value (sorghum; 125 g ai/ha) was 20. The “Plant response rating, Sorghum” value (sorghum; 250 g ai/ha) was 65, the “Plant response rating, Barley” value (winter barley; Preemergence, 62 g ai/ha, scale 0 to 100) was 0 and the “Plant response rating, Barley” value (winter barley; Preemergence, 125 g ai/ha, scale 0 to 100) was 0. For the same compound, the “Plant response rating, Barley” value (winter barley; Preemergence, 31 g ai/ha, scale 0 to 100) was 0, the “Plant response rating, Barley” value (winter barley; preemergence, 250 g ai/ha, scale 0 (no effect) to 100 (complete control)) was 15 and the “Plant response rating, Bromegrass, Downy” value (downy bromegrass; 31 g ai/ha) was 0. The “Plant response rating, Bromegrass, Downy” value (downy bromegrass; 62 g ai/ha) was 0, the “Plant response rating, Bromegrass, Downy” value (downy bromegrass; 125 g ai/ha) was 60 and the “Plant response rating, Bromegrass, Downy” value (downy bromegrass; 250 g ai/ha) was 60. For the same compound, the “Plant response rating, Blackgrass” value (blackgrass; 31 g ai/ha) was 0, the “Plant response rating, Blackgrass” value (blackgrass; 62 g ai/ha) was 40 and the “Plant response rating, Blackgrass” value (blackgrass; 125 g ai/ha) was 40. The “Plant response rating, Blackgrass” value (blackgrass; 250 g ai/ha) was 95, the “Plant response rating, Foxtail, Millet” value (millet foxtail; 31 g ai/ha) was 0 and the “Plant response rating, Foxtail, Millet” value (millet foxtail; 62 g ai/ha) was 20. The “Plant response rating, Foxtail, Millet” value (millet foxtail; 125 g ai/ha) was 70, the “Plant response rating, Foxtail, Millet” value (millet foxtail; 250 g ai/ha) was 100 and the “Plant response rating, Signalgrass” value (broadleaf signalgrass; 31 g ai/ha) was 0. For the same compound, the “Plant response rating, Signalgrass” value (broadleaf signalgrass; 62 g ai/ha) was 15, the “Plant response rating, Signalgrass” value (broadleaf signalgrass; 125 g ai/ha) was 20 and the “Plant response rating, Signalgrass” value (broadleaf signalgrass; 250 g ai/ha) was 85. The “Plant response rating, Goosegrass” value (goosegrass; 31 g ai/ha) was 85, the “Plant response rating, Goosegrass” value (goosegrass; 62 g ai/ha) was 95 and the “Plant response rating, Goosegrass” value (goosegrass; 125 g ai/ha) was 100. For the same compound, the “Plant response rating, Goosegrass” value (goosegrass; 250 g ai/ha) was 100, the “Plant response rating, Wheat, Winter” value (winter wheat; 31 g ai/ha) was 0 and the “Plant response rating, Wheat, Winter” value (winter wheat; 62 g ai/ha) was 0. The “Plant response rating, Wheat, Winter” value (winter wheat; 125 g ai/ha) was 20, the “Plant response rating, Wheat, Winter” value (winter wheat; 250 g ai/ha) was 35 and the “Plant response rating, Wheat, Spring” value (spring wheat; 31 g ai/ha) was 0. For the same compound, the “Plant response rating, Wheat, Spring” value (spring wheat; 62 g ai/ha) was 0, the “Plant response rating, Wheat, Spring” value (spring wheat; 125 g ai/ha) was 15 and the “Plant response rating, Wheat, Spring” value (spring wheat; 250 g ai/ha) was 20. For the same compound, the “Plant response rating, Waterhemp” value (tall waterhemp; 31 g ai/ha) was 0, the “Plant response rating, Waterhemp” value (tall waterhemp; 62 g ai/ha) was 0 and the “Plant response rating, Waterhemp” value (tall waterhemp; 125 g ai/ha) was 0. The “Plant response rating, Waterhemp” value (tall waterhemp; 250 g ai/ha) was 40, the “Plant response rating, Foxtail, Green” value (green foxtail; 31 g ai/ha) was 0 and the “Plant response rating, Foxtail, Green” value (green foxtail; 62 g ai/ha) was 20. For the same compound, the “Plant response rating, Foxtail, Green” value (green foxtail; 125 g ai/ha) was 65, the “Plant response rating, Foxtail, Green” value (green foxtail; 250 g ai/ha) was 80 and the “Plant response rating, Cupgrass, Woolly” value (woolly cupgrass; 31 g ai/ha) was 0. For the same compound, the “Plant response rating, Cupgrass, Woolly” value (woolly cupgrass; 62 g ai/ha) was 0, the “Plant response rating, Cupgrass, Woolly” value (woolly cupgrass; 125 g ai/ha) was 70 and the “Plant response rating, Cupgrass, Woolly” value (woolly cupgrass; 250 g ai/ha) was 95. The “Plant response rating, Foxtail, Yellow” value (yellow foxtail; 31 g ai/ha) was 0, the “Plant response rating, Foxtail, Yellow” value (yellow foxtail; 62 g ai/ha) was 0 and the “Plant response rating, Foxtail, Yellow” value (yellow foxtail; 125 g ai/ha) was 95. For the same compound, the “Plant response rating, Foxtail, Yellow” value (yellow foxtail; 250 g ai/ha) was 95, the “Plant response rating, Lambsquarters” value (lambsquarters; 31 g ai/ha) was 0 and the “Plant response rating, Lambsquarters” value (lambsquarters; 62 g ai/ha) was 0. For the same compound, the “Plant response rating, Lambsquarters” value (lambsquarters; 125 g ai/ha) was 0, the “Plant response rating, Lambsquarters” value (lambsquarters; 250 g ai/ha) was 40 and the “Plant response rating, Crabgrass, Large” value (large crabgrass; 31 g ai/ha) was 0. The “Plant response rating, Crabgrass, Large” value (large crabgrass; 62 g ai/ha) was 45, the “Plant response rating, Crabgrass, Large” value (large crabgrass; 125 g ai/ha) was 100 and the “Plant response rating, Crabgrass, Large” value (large crabgrass; 250 g ai/ha) was 100. The “Plant response rating, Field Violet” value (field violet; 31 g ai/ha) was 0, the “Plant response rating, Field Violet” value (field violet; 62 g ai/ha) was 0 and the “Plant response rating, Field Violet” value (field violet; 125 g ai/ha) was 0. The “Plant response rating, Field Violet” value (field violet; 250 g ai/ha) was 45.
